Key:
[1] = test system: P-selectin; experiment: HL60 cell adhesion assay on recombinant, soluble P-selectin-IgG1 fusion protein; format: cell-based; settings: read-out: IC 50 values for P-selectin
Text: (§1) Primary assays for the investigation of the action of the compounds of the present invention for cell adhesion to recombinant, soluble selectin fusion proteins.
(§2) In order to test the activity of the compounds according to the invention on the interaction between the E- and P-selectins (old nomenclature ELAM-1 and GMP-140) with their ligands, an assay is used which is only specific for one of these interactions in each case. The ligands are supplied in their natural form as surface structures on promyelocytic HL60 cells. As HL60 cells have ligands and adhesion molecules of very different specificity, the desired specificity of the assay can only be produced by means of the binding component. The binding components used were genetically engineered soluble fusion proteins from the extracytoplasmic domain of E- or P-selectin in each case and the constant region of a human immunoglobulin of the subclass IgG1.
Preparation of P-selectin-IgG1
To prepare the soluble P-selectin-lgG1 fusion protein, the genetic construct "CD62Rg" published by Aruffo et al., 1991 is used. The further procedure corresponds to the preparation of L-selectin-IgG1 presented under A1.
Aruffo, A., Kolanus, W., Walz, G., Fredman, P. and Seed, B. 1991. CD62/-P-Selectin recognition of myeloid and tumor cell sulfatides. Cell 67, 35-44.
(§3) Carrying out the HL60 cell adhesion assays on recombinant, soluble adhesion molecules
(§4) 1. 96-well microtiter test plates (Nunc Maxisorb) are incubated at room temperature for 2 hours with 100 μl of a goat anti-human IgG antibody (Sigma) diluted (1+100) in 50 mM tris pH 9.5. After removing the antibody solution, washing is carried out once with PBS.
(§5) 2. 150 μl of the blocking buffer are left in the wells for 1 hour at room temperature. The composition of the blocking buffer is: 0.1% gelatin, 1% BSA, 5% calf serum, 0.2 mM PMSF, 0.02% sodium azide. After removing the blocking buffer, washing is carried out once with PBS.
(§6) 3. 100 μl each of cell culture supernatant of correspondingly transfected and expressing COS cells are pipetted into the wells, Incubation is carried out for 2 hours at room temperature. After removing the cell culture supernatant, washing is carried out once with PBS.
4. 20 μl of binding buffer are added to the wells. The binding buffer has the composition: 50 mM HEPES, pH 7.5; 100 mM NaCl; 1 mg/ml BSA; 2 mM MgCl2; 1 mM CaCl2; 3 mM MnCl2; 0.02% sodium azide; 0.2 mM PMSF. To do this, 5 μl of the test substance are pipetted, mixed by swirling the plate and incubated at room temperature for 10 min.
5. 50 ml of a HL60 cell culture having 200,000 cells/ml are centrifuged at 350 g for 4 min. The pellet is resuspended in 10 ml of RPMI 1640 and the cells are centrifuged again. […]

[2] = molecular target: T1, E-selectin (Homo sapiens, UniProt P16581); experiment: HL60 cell adhesion assay on recombinant, soluble E-selectin-IgG1 fusion protein; format: cell-based; settings: read-out: IC 50 values for E-selectin
T1 construct: genetically engineered soluble fusion proteins from the extracytoplasmic domain of E- or P-selectin in each case; made in house; host or cells: COS-7 cells (ATCC), transiently transfected; culture supernatant captured on anti-human IgG
T1 sequence (P16581 with tags, fused parts or gaps): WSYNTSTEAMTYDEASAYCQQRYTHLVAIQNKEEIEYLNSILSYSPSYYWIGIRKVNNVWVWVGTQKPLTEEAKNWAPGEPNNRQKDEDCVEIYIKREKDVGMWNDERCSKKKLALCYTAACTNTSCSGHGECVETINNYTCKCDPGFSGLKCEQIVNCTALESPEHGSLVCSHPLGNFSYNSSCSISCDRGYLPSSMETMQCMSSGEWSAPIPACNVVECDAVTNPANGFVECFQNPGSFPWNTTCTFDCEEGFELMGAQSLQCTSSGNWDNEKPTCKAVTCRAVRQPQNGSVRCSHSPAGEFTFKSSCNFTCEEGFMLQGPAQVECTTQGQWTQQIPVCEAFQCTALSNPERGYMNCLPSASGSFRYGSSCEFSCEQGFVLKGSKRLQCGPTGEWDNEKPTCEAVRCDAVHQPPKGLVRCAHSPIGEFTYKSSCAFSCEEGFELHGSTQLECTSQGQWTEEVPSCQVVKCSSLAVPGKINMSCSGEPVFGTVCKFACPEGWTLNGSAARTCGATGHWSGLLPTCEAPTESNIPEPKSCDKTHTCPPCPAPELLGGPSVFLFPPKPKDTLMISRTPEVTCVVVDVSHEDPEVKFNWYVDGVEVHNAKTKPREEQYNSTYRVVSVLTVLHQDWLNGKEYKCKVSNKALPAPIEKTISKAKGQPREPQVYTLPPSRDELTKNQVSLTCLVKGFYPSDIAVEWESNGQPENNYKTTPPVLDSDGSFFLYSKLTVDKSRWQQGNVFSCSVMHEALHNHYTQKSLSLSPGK
Text: as §1, §2
Preparation of L-selectin-IgG1
To prepare soluble L-selectin-IgG1 fusion protein, the genetic construct "ELAM-Rg" published by Walz et al., 1990 was used.
For expression, the plasmid DNA was transfected in COS-7 cells (ATCC) by means of DEAE-dextran (Molecular biological methods: see Ausubel, F. M., Brent, R., Kingston, R. E., Moore, D. D., Seidman, J. G., Struhl, K. and Smith, J. A. 1990. Current Protocols in Molecular Biology, John Wiley, New York). Seven days after transfection, the culture supernatant is recovered, freed from cells and cell fragments by centrifugation and transferred to 25 mM HEPES pH 7.0, 0.3 mM PMSF, 0.02% sodium azide and kept at +4° C. (Walz, G., Aruffo, A., Kolanus, W., Bevilacqua, M. and Seed, B. 1990. Recognition by ELAM-1 of the sialyl-Lex determinant on myeloid and tumor cells. Science 250, 1132-1135.)
as §3, §4, §5, §6
4. 20 μl of binding buffer are added to the wells. […]

[3] = test system: open rabbit heart perfused with leukocytes; experiment: Reperfusion model: adhesion of neutrophils in ischemia/reperfusion on the open rabbit heart (Langendorff)
Description: Reperfusion model for investigation of the effects of the adhesion of neutrophils in the course of ischemia/reperfusion on the open rabbit heart
The hearts are perfused at constant pressure according to the Langendorff technique with nutrient solution and also with/without leukocytes or active compound. Ischemia is then produced by tying off the left coronary artery (30 min). After reperfusion (30 min), the leukocyte accumulation is histologically assessed. In the course of the experiment, potentials and arrhythmias are additionally measured on 256 electrodes (total time of experiment about 90 min).

[4] = test system: adhesion of leukocytes to the endothelium; experiment: Leukocyte adhesion in vivo, intravital microscopy in the rat (mesenterium, LPS-induced); settings: SPRD (m) rat, LPS 15 mg/kg, vs untreated control
Text: Leukocyte adhesion--Testing of the activity of the compounds according to the invention in vivo (intravital microscopy in the rat):
The induced adhesion of leukocytes is quantified in the mesenterium of the rat using an intravital microscopic investigation technique (Atherton A. and Born G. V. R., Quantitative investigations of the adhesiveness of circulating polymorphonuclear leukocytes to blood vessel walls. J. Physiol. 222, 447-474, 1972; Seiffge, D. Methoden zur Untersuchung der Rezeptor-vermittelten Interaktion zwischen Leukozyten und Endothelzellen im Entzundungsgeschehen [Methods for investigation of the receptor-mediated interaction between leukocytes and endothelial cells in inflammatory phenomena], in: Ersatz- und Erganzungsmethoden zu Tierversuchen in der biomedizinischen Forschung [Substitution and replacement methods for animal experiments in biomedical research], Schoffl, H. et al., (ed.) Springer, 1995 (in print)). Lasting anesthesia is initiated under inhalation ether anesthesia by intramuscular injection of urethane ([…] of body weight). After exposing vessels (femoral vein for the injection of substances and carotid artery for blood pressure measurement), catheters are tied into them. After this, the corresponding transparent tissue (mesenterium) is exposed by the standard methods known in the literature and arranged on the microscope stage and coated with warm liquid paraffin at 37° C. (Menger, M. D. and Lehr, H, A., Scope and perspectives of intravital microscopy-bridge over from in vitro to in vivo, Immunology Today 14, 519-522, 1993). […] The increased adhesion of leukocytes to the endothelium caused by this means is quantified by direct vital microscopy or with the aid of fluorescent dyes. All measuring operations are recorded by video camera and stored on a video recorder. Over a period of 60 minutes, the number of rolling leukocytes (i.e. all visibly rolling leukocytes which are slower than the flowing erythrocytes) and the number of leukocytes adhering to the endothelium (residence period longer than 5 seconds) is determined every 10 minutes. […]

Row | Molecule | IC50 [1] | IC50 [2] | reduction of arrhythmias ([3]; in the range from about 1 μM) | inhibition (of leukocyte adhesion) ([4]; 1 mg/kg i.v.) | inhibition (of leukocyte adhesion) ([4]; 5 mg/kg i.v.) | inhibition (of leukocyte adhesion) ([4]; 10 mg/kg i.v.) | leukocyte accumulation and arrhythmias ([3]; hearts perfused with leukocytes and active compound, vs untreated hearts)
1 | C[C@@H]1O[C@@H](O[C@@H]2CCC[C@H]2OC(=O)N2CCC(C(=O)O)CC2)[C@@H](O)[C@H](O)[C@@H]1O [Compound 1e, N-Carbonyl-4-carboxypiperidyl-(1→2)-[(α-L-fucopyranosyl)-(1→1)]-(1R, 2R)-trans-1,2-cyclopentanediol] | 2850 µM | 3700 µM | – | – | – | – | –
2 | C[C@@H]1O[C@@H](O[C@@H]2CCCC[C@H]2OC(=O)N2CCC(C(=O)O)CC2)[C@@H](O)[C@H](O)[C@@H]1O [Compound 3a, N-Carbonyl-4-carboxypiperidyl-(1→2)-[(α-L-fucopyranosyl)-(1→1)]-(1R, 2R)-trans-1,2-cyclohexanediol] | > 2000 µM | > 2000 µM | considerable reduction of arrhythmias | 64% | 69% | 81% | –
3 | C[C@@H]1O[C@@H](O[C@@H]2CCCC[C@H]2OC(=O)N2CCC(C(=O)O)(C(=O)O)CC2)[C@@H](O)[C@H](O)[C@@H]1O [Compound 3e, N-Carbonyl-4,4-dicarboxypiperidyl-(1→2)-[(α-L-fucopyranosyl)-(1→1)]-(1R, 2R)-trans-1,2-cyclohexanediol] | 7500 µM | 1600 µM | – | – | – | – | –
4 | C[C@@H]1O[C@@H](O[C@@H]2CCCC[C@H]2OC(=O)N2CCCC(CC(C(=O)O)C(=O)O)C2)[C@@H](O)[C@H](O)[C@@H]1O (stereo partly drawn) [Compound 4b, [N-Carbonyl-(1,1-dicarboxyl-ethyl)-(2→3)-piperidyl]-(1→2)-[(α-L-fuco-pyranosyl)-(1→1)]-(1R, 2R)-trans-1,2-cyclohexanediol] | > 2000 µM | > 2000 µM | – | – | – | – | –
5 | chondroitin sulfate [reference compound] | – | – | – | – | – | – | reduced leukocyte accumulation and arrhythmias

— patent publication US5739300A, “Antiadhesive piperidine-and pyrrolidinecarboxylic acids” (Hoechst Aktiengesellschaft, priority 1995, dated 1998)
